Source: publication PMC11483813, “Bombesin-Targeted Delivery of β-Carboline-Based Ir(III) and Ru(II) Photosensitizers for a Selective Photodynamic Therapy of Prostate Cancer” (Inorganic Chemistry, 2024)

Legend:
A549 lung cancer cells = assay type: cell-based, human; settings: A549; 4 h incubation, kept in the dark 1 h; MTT after 48 h; read-out: IC50 A549 Dark
Description: (§1) The effect of Ir-H, Ir-Me, Ru-H, and Ru-Me on cell viability was evaluated in the A549 lung cancer and PC-3 prostate cancer cell lines by MTT assays. PC-3 cells were specifically chosen due to their high expression levels of GRPR on their surface, allowing for further evaluation of the activity of the BN3-derived metallopeptides Ir-BN and Ru-BN.[38],[51] In contrast, A549 cells express low levels of GRPR.[52] MRC-5 fibroblasts were used as a nonmalignant cell model.[53]Table 3 reports the half maximal inhibitory concentration (IC50) values obtained after treating the cells either under dark conditions or upon exposure to blue light at a dose of 24.1 J cm^–2. The photocytotoxicity index (PI), defined as the IC50,dark/IC50,light, is provided for each compound.
(§2) Stock solutions of the complexes and metallopeptides were initially prepared at a concentration of 5 mM in DMSO and then diluted in sterile distilled water to achieve a final concentration of 1 mM, with a resulting DMSO concentration of 20% v/v. Cells were seeded into 96-well plates at a density of 2500 cells/well for A549, 3500 cells/well for PC-3, and 5500 cells/well for MRC-5. Following 24 h of incubation for attachment, cells were treated in triplicate with freshly prepared working solutions of the compounds in the culture medium at concentrations ranging from 0.001 to 100 μM. The maximum DMSO concentration in the working solutions was 2% (v/v). The working concentrations for each compound were adjusted based on their cytotoxicity. Following a 4 h incubation period to allow internalization of the compounds into the cells, the plates were kept in dark conditions or exposed to blue (460 nm) or red (655 nm) light for 1 h using an LED system (LuxLight), providing a total dose of 24.1 J cm^–2. All plates were incubated in the dark for an additional 43 h. Cells were then washed with phosphate-buffered saline (PBS), and 100 μL of fresh culture medium containing 10% of 3-[4,5-dimethylthiazol-2-yl]-2,5 diphenyl tetrazolium bromide (MTT) solution (0.5 mg/mL) (Sigma- Aldrich) was added to each well. After a 2 h incubation period, the formazan crystals were dissolved in DMSO, and the absorbance was measured at 570 nm using a Multiscan Plate Reader (Synergy 4, Biotek, Winooski, USA). The concentration causing a 50% reduction in cell viability (IC50) was determined for each compound with the Gen5 software (BioTek). At least three independent experiments were conducted for each compound.

[1] = system: PC-3 prostate cancer cells; assay type: cell-based, human; settings: PC-3; 4 h incubation, kept in the dark 1 h; MTT after 48 h; read-out: IC50 PC-3 Dark
Description: as §1, §2

MRC-5 fibroblasts = assay type: cell-based, human; settings: MRC-5; 4 h incubation, kept in the dark 1 h; MTT after 48 h; read-out: IC50 MRC-5 Dark
Description: as §1, §2

[2] = design: method as in earlier work; settings: standard reference; H2O:DMSO (55:45); ref 6 (SI); cited from earlier work

Row | SMILES | IC50 (A549 lung cancer cells) | IC50 [1] | IC50 (MRC-5 fibroblasts) | singlet oxygen quantum yield (ΦΔ) [2]
1 | N.N.[Cl][Pt][Cl] [Cisplatin, reference compound] | 5.99 ± 1.2 µM | 5.55 ± 0.97 µM | 5.34 ± 0.38 µM | 
2 | O=C([O-])c1c(Cl)c(Cl)c(Cl)c(Cl)c1-c1c2cc(I)c(=O)c(I)c-2oc2c(I)c([O-])c(I)cc12.[Na+].[Na+] [rose bengal] |  |  |  | 0.75
